4 compounds from patent US7071334B2, “6-(2-chloro-6-fluoro-phenyl)-triazolopyrimidines” (priority 2001, dated 2006) can be followed below.

Format in all cases: in vivo
Experiment [1] deals with Pyrenophora teres. The experiment in a line: Comparison Test 2: Control of net blotch on barley. The note with it: barley treated with 250 ppm, inoculated next day, assessed after 6 days; untreated 100%.
The subject of experiment [2] is Septoria tritici. The experiment in a line: Comparison Trial 3: Fungicidal control of leaf blotch on wheat (protective). The conditions noted are these: wheat seedlings treated with 63 ppm, inoculated following day, assessed after 2 weeks; untreated 90%.
The test system of experiment [3] is Alternaria solani. In words: Comparison Test 1: Fungicidal control of early blight on tomatoes. The note with it: another trial, tomato plants treated with 16 ppm; untreated 90%.
Experiment [4] deals with Sphaerotheca fuliginea. In words: Comparison Test 5: Protective control of powdery mildew on cucumber. The conditions noted are these: cucumber seedlings treated with 16 ppm, inoculated next day, assessed after 8 days; untreated 100%. As to the method:
Cucumber seedlings of the variety “Chinesische Schlange” were grown in pots to the 2 leaf stage. The plants were then sprayed to run-off with an aqueous suspension, containing the concentration of active ingredient as described below, prepared from a stock solution containing 10% of the active ingredient, 85% cyclohexanone and 5% emulsifier. The next day the treated plants were inoculated with an aqueous spore suspension of cucumber powdery mildew (Sphaerotheca fuliginea). Then the trial plants were cultivated in a greenhouse at temperatures between 20 and 24° C. and a relative humidity between 60 and 80.%. After 8 days the extent of fungal attack on the leaves was visually assessed as % diseased leaf area.

As for `COc1nc2ncnn2c(C2CCCCC2)c1-c1c(F)cccc1Cl` [C], in experiment [1], the “infection (% diseased leaf area)” value came to 100%.

For the compound `N#Cc1nc2ncnn2c(C2CCCCC2)c1-c1c(F)cccc1Cl` [D], the “infection (% diseased leaf area)” value in experiment [1] came out at 100%.

In the case of `CCN(CC)c1c(-c2c(F)cccc2Cl)c(C#N)nc2ncnn12` [I-5], in experiment [2], the “infection (% diseased leaf area)” value is “no infection”.

Regarding `Cc1nc2ncnn2c(N2CCC(C)CC2)c1-c1c(F)cccc1Cl` [E], the “infection (% diseased leaf area)” value in experiment [3] was 30%; in experiment [4], 90%.
